Data set [1] deals with Staphylococcus aureus. In words: Bactericidal activity against Staphylococcus aureus ATCC 25923 assessed as inhibition of bacterial growth at 2 times MIC measured at 120 mins by time-kill assay. It counts as functional, organism-based.
The test system of data set [2] is Staphylococcus aureus. In words: Bactericidal activity against Staphylococcus aureus ATCC 25923 assessed as inhibition of bacterial growth at 0.5 to 2 times MIC measured at 180 mins by time-kill assay. Type of data set: functional, organism-based.
Data set [3] deals with Escherichia coli. In words: Synergistic antibacterial activity against Escherichia coli ATCC 25922 assessed as fractional inhibitory concentration index incubated for 18 hrs in presence of gentamycin by checkerboard assay. It counts as functional.
In data set [4] the test system is Escherichia coli. As to the kind of experiment: Synergistic antibacterial activity against Escherichia coli ATCC 25922 assessed as fractional inhibitory concentration index incubated for 18 hrs in presence of PMB by checkerboard assay. It counts as functional.
In data set [5] the test system is Escherichia coli. In words: Additive antibacterial activity against rifampicin-resistant Escherichia coli ATCC 25922 incubated for 18 hrs by checkerboard assay. It counts as functional, organism-based.
Data set [6] has as its system Escherichia coli. In words: Additive antibacterial activity against gentamycin-resistant Escherichia coli ATCC 25922 incubated for 18 hrs by checkerboard assay. It counts as functional, organism-based.
Data set [7] can be described thus: Acute toxicity in Kunming mouse assessed as survival rate at 20 to 60 mg/kg, ip measured after 4 hrs. Type of data set: organism-based. As to conditions: in vivo, dose 20-60 mg/kg.
Data set [8] in a line: Hemolytic activity in mouse red blood cells assessed as hemolysis at 256 microg/ml incubated for 1 hr relative to control. As to conditions: red blood cells (erythrocytes), at 256 µg/mL, read-out: Activity. It counts as toxicity, cell-based, Erythrocyte.
In data set [9] the test system is Escherichia coli. In words: Synergistic antibacterial activity against Escherichia coli ATCC 25922 assessed as fractional inhibitory concentration index incubated for 18 hrs in presence of rifampicin by checkerboard assay. Type of data set: functional.
For data set [10], the system named is Staphylococcus aureus. In words: Bactericidal activity against Staphylococcus aureus ATCC 25923 assessed as inhibition of bacterial growth at 2 times MIC measured at 60 mins by time-kill assay. Type of data set: functional, organism-based.
The test system of data set [11] is Escherichia coli. In words: Bactericidal activity against Escherichia coli ATCC 25922 assessed as inhibition of bacterial growth at 0.5 to 2 times MIC measured at 90 mins by time-kill assay. Type of data set: functional, organism-based.
The test system of data set [12] is Escherichia coli. In words: Bactericidal activity against Escherichia coli ATCC 25922 assessed as inhibition of bacterial growth at 1 times MIC measured at 120 mins by time-kill assay. Type of data set: functional, organism-based.
Data set [13] has as its system Staphylococcus aureus. In words: Antimicrobial activity against methicillin-resistant Staphylococcus aureus 74 assessed as inhibition of microbial growth incubated for 18 hrs by broth microdilution analysis. As to conditions: Staphylococcus aureus, 74, 18 h. It counts as functional, organism-based.
Data set [14] has as its system Staphylococcus aureus. In words: Antimicrobial activity against methicillin-resistant Staphylococcus aureus 936 assessed as inhibition of microbial growth incubated for 18 hrs by broth microdilution analysis. It counts as functional, organism-based. As to conditions: Staphylococcus aureus, 936, 18 h.
Data set [15] relates to Pseudomonas aeruginosa. As to the kind of experiment: Antimicrobial activity against Pseudomonas aeruginosa 124 assessed as inhibition of microbial growth incubated for 18 hrs by broth microdilution analysis. Type of data set: functional, organism-based. As to conditions: Pseudomonas aeruginosa, 124, 18 h.
In data set [16] the test system is Klebsiella pneumoniae. In words: Antibacterial activity against Klebsiella pneumoniae ATCC 700603 infected in BALB/c mouse pneumonia model assessed as alveolar expansion at 10 mg/kg, ip measured at 4 to 12 hrs by hematoxylin and eosin staining based analysis. It counts as functional, organism-based. As to conditions: time 4-12 hrs.
In data set [17] the test system is Staphylococcus aureus. In words: Bactericidal activity against Staphylococcus aureus ATCC 25923 assessed as inhibition of bacterial growth at 2 times MIC measured upto 360 mins by time-kill assay. It counts as functional, organism-based.
The subject of data set [18] is Escherichia coli. As to the kind of experiment: Antimicrobial activity against Escherichia coli 780 assessed as inhibition of microbial growth incubated for 18 hrs by broth microdilution analysis. It counts as functional, organism-based. The following applies: Escherichia coli, 780, 18 h.
Data set [19] in a line: Hemolytic activity in mouse red blood cells assessed as hemolysis at 128 microg/ml incubated for 1 hr relative to control. Type of data set: toxicity, cell-based, Erythrocyte. As to conditions: red blood cells (erythrocytes), read-out: Activity.
The test system of data set [20] is Escherichia coli. In words: Antimicrobial activity against Escherichia coli ATCC 25922 assessed as reduction in microbial growth measured for 18 hrs in presence of […] microg/ml LPS. It counts as functional, organism-based.
Data set [21] deals with Staphylococcus aureus. As to the kind of experiment: Bactericidal activity against Staphylococcus aureus ATCC 25923 assessed as inhibition of bacterial growth at 2 times MIC measured at 30 mins by time-kill assay. Type of data set: functional, organism-based.
Data set [22] deals with Staphylococcus aureus. As to the kind of experiment: Antimicrobial activity against methicillin-resistant Staphylococcus aureus 52 assessed as inhibition of microbial growth incubated for 18 hrs by broth microdilution analysis. It counts as functional, organism-based. The following applies: Staphylococcus aureus, 52, 18 h.
Data set [23] relates to Escherichia coli. As to the kind of experiment: Antimicrobial activity against Escherichia coli 850 assessed as inhibition of microbial growth incubated for 18 hrs by broth microdilution analysis. As to conditions: Escherichia coli, 850, 18 h. Type of data set: functional, organism-based.
Data set [24] can be described thus: Acute toxicity in Kunming mouse assessed as survival rate at 20 to 80 mg/kg, ip measured after 4 hrs. Type of data set: organism-based. As to conditions: in vivo, dose 20-80 mg/kg.
In data set [25] the test system is Staphylococcus aureus. In words: Antimicrobial activity against methicillin-resistant Staphylococcus aureus 54 assessed as inhibition of microbial growth incubated for 18 hrs by broth microdilution analysis. As to conditions: Staphylococcus aureus, 54, 18 h. It counts as functional, organism-based.
Data set [26] has as its system Pseudomonas aeruginosa. As to the kind of experiment: Antimicrobial activity against Pseudomonas aeruginosa 119 assessed as inhibition of microbial growth incubated for 18 hrs by broth microdilution analysis. It counts as functional, organism-based. The following applies: Pseudomonas aeruginosa, 119, 18 h.
The subject of data set [27] is Staphylococcus aureus. As to the kind of experiment: Antimicrobial activity against methicillin-resistant Staphylococcus aureus 48 assessed as inhibition of microbial growth incubated for 18 hrs by broth microdilution analysis. It counts as functional, organism-based. The following applies: Staphylococcus aureus, 48, 18 h.
The subject of data set [28] is Klebsiella pneumoniae. In words: Antibacterial activity against Klebsiella pneumoniae ATCC 700603 infected in BALB/c mouse pneumonia model assessed as reduction in infiltration of inflammatory cells at 10 mg/kg, ip measured at 4 to 12 hrs by hematoxylin and eosin staining based analysis. Type of data set: functional, organism-based. As to conditions: time 4-12 hrs.

Data set [29] has as its system Pseudomonas aeruginosa. As to the kind of experiment: Antimicrobial activity against Pseudomonas aeruginosa 86 assessed as inhibition of microbial growth incubated for 18 hrs by broth microdilution analysis. It counts as functional, organism-based. As to conditions: Pseudomonas aeruginosa, 86, 18 h.
The subject of data set [30] is Escherichia coli. As to the kind of experiment: Antimicrobial activity against Escherichia coli 804 assessed as inhibition of microbial growth incubated for 18 hrs by broth microdilution analysis. It counts as functional, organism-based. The following applies: Escherichia coli, 804, 18 h.

Activity calls are given as the source filed them. No cut-off for these calls is given here.

Consider three molecules from ChEMBL document CHEMBL5331122, “Structure-Activity Relationship Study of Antimicrobial Peptide PE2 Delivered Novel Linear Derivatives with Potential of Eradicating Biofilms and Low Incidence of Drug Resistance” (J Med Chem, 2023).

Take `CCCCCCC(=O)N[C@@H](CCN)C(=O)N[C@H](C(=O)N[C@@H](CCN)C(=O)N[C@H](Cc1ccccc1)C(=O)N[C@@H](CC(C)C)C(=O)N[C@@H](CCN)C(=O)N[C@@H](C(=O)N[C@@H](CC(C)C)C(=O)N[C@@H](Cc1ccc(O)cc1)C(N)=O)C(C)C)[C@@H](C)CC`: the outcome with Staphylococcus aureus [1], in the data set with Staphylococcus aureus [2], in the data set on Escherichia coli [5] and in the data set on Escherichia coli [6] was Active. For the same molecule, the “fractional inhibitory concentration index (FICI)” value in the data set with Escherichia coli [3] came to 0.5; with Escherichia coli [4], 0.312; in the data set with Escherichia coli [9], 0.312. The Activity entry in data set [7] is reported as “Toxic”. In addition, the hemolysis at 1 h, 256 µg/mL in data set [8] is below 10%.
Take `CC[C@H](C)[C@@H]1NC(=O)[C@H](CCN)NC(=O)C[C@@H](C(C)C)OC(=O)[C@H]([C@@H](C)O)NC(=O)[C@H](CC(C)C)NC(=O)[C@@H](C(C)C)NC(=O)[C@H](CCN)NC(=O)[C@H](CC(C)C)NC(=O)[C@@H](Cc2ccccc2)NC(=O)[C@H](CCN)NC1=O`: the result with Staphylococcus aureus [10], in the data set with Escherichia coli [11] and in the data set on Escherichia coli [12] was Active.
For the molecule `CCCCCCCC(=O)N[C@@H](CCN)C(=O)N[C@H](C(=O)N[C@@H](CCN)C(=O)N[C@H](Cc1ccccc1)C(=O)N[C@@H](CC(C)C)C(=O)N[C@@H](CCN)C(=O)N[C@@H](C(=O)N[C@@H](CC(C)C)C(=O)N[C@@H](Cc1ccc(O)cc1)C(N)=O)C(C)C)[C@@H](C)CC`, the EC50 in the data set on Staphylococcus aureus [13] was 5.1 µg/mL; in the data set on Staphylococcus aureus [14], 6.12 µg/mL; in the data set with Pseudomonas aeruginosa [15], 2.76 µg/mL; in the data set with Escherichia coli [18], 2.55 µg/mL; in the data set on Staphylococcus aureus [22], 4.46 µg/mL; in the data set on Escherichia coli [23], 2.42 µg/mL. Also, the EC50 with Staphylococcus aureus [25] came out at 4.33 µg/mL; in the data set on Pseudomonas aeruginosa [26] it was 2.31 µg/mL; in the data set with Staphylococcus aureus [27] it was 5.48 µg/mL; with Pseudomonas aeruginosa [29], 2.08 µg/mL; in the data set on Escherichia coli [30], 2.36 µg/mL. Further, the result in the data set on Klebsiella pneumoniae [16], with Staphylococcus aureus [17], in the data set with Escherichia coli [20], in the data set on Staphylococcus aureus [21], in the data set with Escherichia coli [5] and with Escherichia coli [6] was Active. The outcome in the data set with Klebsiella pneumoniae [28] was Active. Also, in data set [19], the hemolysis at 1 h, 128 µg/mL amounted to 10%. Besides, the Activity result in data set [24] is “Toxic”.
